The text below walks through data of US20200163984A1, “USE OF ISOVALERYL SPIRAMYCIN I, II AND/OR III IN MANUFACTURING MEDICAMENT FOR TREATING AND/OR PREVENTING TUMOR, AND MEDICAMENT” (SHENYANG FUYANG PHARMACEUTICAL TECHNOLOGY CO., LTD., priority 2017, published 2020).

Data set [1] relates to transplanted tumor of mouse H22 liver cancer. Put plainly: Transplanted tumor of mouse H22 liver cancer. Particulars: for Tumor Volume (mm3) (d30): d 30; for growth of H22 liver cancer in mice: 13, 26 and 52 mg/kg i.g. 7 days. The method, then:
The H22 cell strains cryopreserved in liquid nitrogen were resuscitated in Kunming mice. After 3 generations, the ascites of Kunming mice were taken and placed in a 50 ml centrifuge tube in which 10 ml of 0.9% normal saline was added, and then centrifuging was performed at 1000 rpm for 5 min at room temperature, and the obtained supernatant was removed. Then 10 ml of 0.9% normal saline was added to the tube to blow and mix well, and then the mixture was diluted to 5×10^6 live cells/ml with normal saline after counting. The tube was stored in ice water, and 75% ethanol was used to disinfect the skin under the right armpits of the mice. Each Kunming mouse was soon inoculated subcutaneously with 0.2 ml of the cells at the armpit of the right forelimb.
In the H22 liver cancer model, the mice inoculated with the tumor were randomly divided into groups with 10 mice in each group on the next day of inoculation. The groups included: a model control group, a positive drug cyclophosphamide control group (CTX, 26 mg/kg), isovaleryl spiramycin I groups with doses of 13, 26 and 52 mg/kg; isovaleryl spiramycin II groups with doses of 13, 26 and 52 mg/kg; isovaleryl spiramycin III groups with doses of 13, 26 and 52 mg/kg. Each group was continuously administered intragastrically for 7 days with a dose of 20 ml/kg.
The tumor-bearing mice were weighed and sacrificed the next day after the last administration. The subcutaneous tumors were dissected and weighed. The average tumor weight of each group is calculated, and the tumor inhibition rate is calculated.
Tumor inhibition rate=(1−T/C)×100%
T: average tumor weight of the drug-administered group; C: average tumor weight of the blank control group.

The subject of data set [2] is NK cell activity of spleen cells against K562 cells. Put plainly: Natural killer (NK) cell activity of Lewis lung cancer tumor-bearing mice. The format is in vivo, C57BL/6 mouse. The method, then: In the Lewis lung cancer model, the mice inoculated with the tumor were randomly divided into groups with 10 mice in each group the next day of inoculation. The groups included: a model control group, a positive drug cyclophosphamide control group (CTX, 30 mg/kg), isovaleryl spiramycin I groups with doses of 13, 26 and 52 mg/kg; isovaleryl spiramycin II groups with doses of 13, 26 and 52 mg/kg; isovaleryl spiramycin III groups with doses of 13, 26 and 52 mg/kg. Each group was continuously administered intragastrically for 15 days with a dose of 20 ml/kg.
The serum-free RPMI 1640 medium was placed in a dish, and then the dish was placed on ice. The spleen was aseptically taken and gently ground with a sterile glass slide to prepare a single cell suspension. The single cell suspension was filtered with a double-layer sterile gauze, washed twice with serum-free RPMI1640 medium, and centrifuged at 1,500 rpm for 5 min to remove the obtained supernatant. 2 mL of red blood cell lysate was added to the treated suspension, the mixture was allowed to stand for 2 min, and then 8 mL of RPMI 1640 medium was added, centrifuging was performed at 1,500 rpm for 5 min to remove the obtained supernatant, and then washing was performed twice with the RPMI 1640 medium. […] A single cell suspension was prepared by using a RPMI 1640 medium containing 10% fetal bovine serum.
The spleen cell suspension was taken, and the cell density was adjusted to 1×10^7/mL (effector cells). A suspension of K562 cells was prepared with a cell density of 1×10^5/mL (target cells). Each mouse was set with: A. effector cells:target cell well (quantity ratio 20:1) to which […] of spleen cell suspension and 100 μL of K562 cell suspension were added; B. an effector cell control well to which 100 μL of spleen cell suspension and 100 μL of RPMI 1640 medium were added; and C. a target cell control well to which 100 μL of K562 cell suspension and 100 μL of RPMI 1640 medium were added. The above cells were added to a 96-well plate. After the 96-well plate was transferred to a saturated humidity condition with a volume fraction of 5% CO2 at 37° C. for incubation for 22 h, 10 μL of MTT solution (5 g/L) was added to each well, and incubation was continued to be performed for 4 hours under the same conditions, then the culture was terminated. 100 μl of a triple solution (SDS 10 g, 10M HCl 0.1 mL, isobutanol 5 mL, diluted with distilled water to 100 mL) was added, and the plate was shaken for 10 min to fully dissolve the crystals, and the Optical Density (OD) of each well at 490 nm was measured, and the NK cell activity was calculated. NK cell activity (%)=[TO−(S−E)]/TO×100%, wherein TO is the Optical Density of the target cell control well, S is the Optical Density of the effector cell control well, and E is the Optical Density of the effector cell.

`O=P1(N(CCCl)CCCl)NCCCO1` (stereo not shown) [Cyclophosphamide, cyclophosphamide, reference compound]: in data set [1] (H22, CTX 26 mg/kg i.g. 7 days), the “weight compared with the normal control group” value was “slight decrease”. The molecule also registered a tumor inhibition rate in data set [1] (Kunming mouse H22 liver cancer, CTX 26 mg/kg i.g. 7 days) of 73.03%. Also, in data set [1] (dose 26 mg/kg), the “Inhibition Rate (%)” value was found to be 73.03% and the “Tumor” value was determined as 0.41 ± 0.27 g. The “Body Weight (g) (d1)” value in data set [1] (dose 26 mg/kg, d 1) worked out at 23.72 ± 1.79 g. Besides, the “Body Weight (g) (d 7)” value in data set [1] (dose 26 mg/kg, d 7) is 23.68 ± 1.32 g. In addition, in data set [1] (dose 30 mg/kg), the “Relative Tumor Proliferation Rate (T/C)” value worked out at 28.78, the “Relative Tumor Volume (RTV)” value came to 2.86 ± 1.44 and the “Tumor Volume (mm3) (d30)” value came out at 307.34 ± 79.91 mm3. For the same molecule, the “Tumor Volume (mm3) (d 1)” value in data set [1] (dose 30 mg/kg, d 1) was 119.60 ± 31.11 mm3. The “NK Cell Activity” value in data set [2] (26 mg/kg) is given as 35.4 ± 6.6 %. In addition, in data set [2] (cyclophosphamide, P<0.05), the “NK cell activity compared with the control group” value was “significantly lower”.
For the molecule `CO[C@@H]1[C@@H](O[C@@H]2O[C@H](C)[C@@H](O[C@H]3C[C@@](C)(O)[C@@H](OC(=O)CC(C)C)[C@H](C)O3)[C@H](N(C)C)[C@H]2O)[C@@H](CC=O)C[C@@H](C)[C@@H](O[C@H]2CC[C@H](N(C)C)[C@@H](C)O2)/C=C/C=C/C[C@@H](C)OC(=O)C[C@H]1O` [Isovaleryl spiramycin I, isovaleryl spiramycin I], in data set [1], the “growth of H22 liver cancer in mice” value is given as “significantly inhibit”. Besides, the “Relative Tumor Proliferation Rate (T/C)” value in data set [1] (dose 12.5 mg/kg) came to 54.47; in data set [1] (dose 25 mg/kg), 48.27; in data set [1] (dose 50 mg/kg), 29.78. The results for the “Relative Tumor Volume (RTV)” value in data set [1] (dose 12.5 mg/kg), in data set [1] (dose 25 mg/kg) and in data set [1] (dose 50 mg/kg) were 5.41 ± 1.42, 4.79 ± 0.64 and 2.96 ± 0.39, respectively. Besides, the “Tumor Volume (mm3) (d 1)” value is recorded as 120.26 ± 24.42 mm3 in data set [1] (dose 12.5 mg/kg, d 1); 118.32 ± 11.90 mm3 in data set [1] (dose 25 mg/kg, d 1); 120.68 ± 13.76 mm3 in data set [1] (dose 50 mg/kg, d 1). Also, the “Tumor Volume (mm3) (d30)” value came to 657.57 ± 231.56 mm3 in data set [1] (dose 12.5 mg/kg), 563.69 ± 463.08 mm3 in data set [1] (dose 25 mg/kg) and 359.74 ± 480.81 mm3 in data set [1] (dose 50 mg/kg). The “Inhibition Rate (%)” value in data set [1] (dose 13 mg/kg) was 42.11%; in data set [1] (dose 26 mg/kg), 55.26%; in data set [1] (dose 52 mg/kg), 65.79%. Besides, the “Tumor” value amounted to 0.88 ± 0.38 g in data set [1] (dose 13 mg/kg), 0.68 ± 0.24 g in data set [1] (dose 26 mg/kg) and 0.52 ± 0.68 g in data set [1] (dose 52 mg/kg). In addition, the “Body Weight (g) (d1)” value in data set [1] (mouse, in vivo, 13 mg/kg) is on record as 24.55 ± 1.00 g; in data set [1] (mouse, in vivo, 26 mg/kg) it was 23.83 ± 2.36 g; in data set [1] (mouse, in vivo, 52 mg/kg), 24.02 ± 2.83 g. In addition, the “Body Weight (g) (d 7)” value in data set [1] (mouse, in vivo, 13 mg/kg) was found to be 26.23 ± 0.79 g; in data set [1] (mouse, in vivo, 26 mg/kg), 26.68 ± 1.85 g; in data set [1] (mouse, in vivo, 52 mg/kg), 27.87 ± 1.57 g. Moreover, the “NK Cell Activity” value is on record as 52.5 ± 9.2% in data set [2] (13 mg/kg), 67.0 ± 12.1 % in data set [2] (26 mg/kg) and 39.8 ± 6.8% in data set [2] (52 mg/kg). Moreover, the “NK cell activity compared with the control group” value in data set [2] (13, 26 and 52 mg/kg, P<0.01) is “significantly increase”.
Take `COC1C(OC(C)=O)CC(=O)OC(C)CC=CC=CC(OC2CCC(N(C)C)C(C)O2)C(C)CC(CC=O)C1OC1OC(C)C(OC2CC(C)(O)C(OC(=O)CC(C)C)C(C)O2)C(N(C)C)C1O` (stereo not shown) [Isovaleryl spiramycin II, isovaleryl spiramycin II]: the “growth of H22 liver cancer in mice” value in data set [1] is on record as “significantly inhibit”. Besides, the results for the “Relative Tumor Proliferation Rate (T/C)” value in data set [1] (dose 12.5 mg/kg), in data set [1] (dose 25 mg/kg) and in data set [1] (dose 50 mg/kg) were 78.85, 66.04 and 56.20, respectively. Also, the “Relative Tumor Volume (RTV)” value in data set [1] (dose 12.5 mg/kg) is 7.83 ± 1.50; in data set [1] (dose 25 mg/kg), 6.56 ± 2.19; in data set [1] (dose 50 mg/kg) it was 5.58 ± 0.95. Moreover, the “Tumor Volume (mm3) (d 1)” value in data set [1] (dose 12.5 mg/kg, d 1) is on record as 120.80 ± 18.48 mm3; in data set [1] (dose 25 mg/kg, d 1), 118.02 ± 10.35 mm3; in data set [1] (dose 50 mg/kg, d 1), 118.18 ± 14.68 mm3. Moreover, the “Tumor Volume (mm3) (d30)” value in data set [1] (dose 12.5 mg/kg) came out at 931.38 ± 141.51 mm3; in data set [1] (dose 25 mg/kg), 779.30 ± 292.34 mm3; in data set [1] (dose 50 mg/kg), 659.02 ± 138.35 mm3. For the same molecule, the entries for the “Inhibition Rate (%)” value in data set [1] (dose 13 mg/kg), in data set [1] (dose 26 mg/kg) and in data set [1] (dose 52 mg/kg) were 19.74%, 30.26% and 45.39%, respectively. Also, the “Tumor” value in data set [1] (dose 13 mg/kg) was 1.22 ± 0.31 g; in data set [1] (dose 26 mg/kg), 1.06 ± 0.33 g; in data set [1] (dose 52 mg/kg) it was 0.83 ± 0.46 g. The “Body Weight (g) (d1)” value in data set [1] (mouse, in vivo, 13 mg/kg) is recorded as 24.22 ± 2.15 g; in data set [1] (mouse, in vivo, 26 mg/kg), 24.72 ± 1.69 g; in data set [1] (mouse, in vivo, 52 mg/kg), 23.45 ± 1.69 g. In addition, the “Body Weight (g) (d 7)” value in data set [1] (mouse, in vivo, 13 mg/kg) is recorded as 27.27 ± 2.20 g; in data set [1] (mouse, in vivo, 26 mg/kg) it was 27.35 ± 0.80 g; in data set [1] (mouse, in vivo, 52 mg/kg) it was 27.02 ± 0.90 g. Besides, the “NK Cell Activity” value in data set [2] (13 mg/kg) is on record as 47.2 ± 9.2%; in data set [2] (26 mg/kg), 47.0 ± 5.5%; in data set [2] (52 mg/kg), 43.1 ± 7.3%. Moreover, in data set [2] (13, 26 and 52 mg/kg, P<0.01), the “NK cell activity compared with the control group” value was “significantly increase”.
